Assay results reported in patent US20220184172A1, “AMPK/CASPASE-6 AXIS CONTROLS LIVER DAMAGE IN NONALCOHOLIC STEATOHEPATITIS” (The Regents of the University of California, priority 2019, published 2022).

Assays:
[1] = tested on: C57BL/6J mice fed 45% HFD; settings: 30 mg/kg twice per day for 7 days; cited from earlier work
[2] = tested on: caspase-6 activity in primary hepatocytes; assay: Caspase-6 activity induced by palmitic acid in primary hepatocytes; type: cell-based, mice; settings: 40 μM pretreatment 1 hr, then 250 μM BSA-conjugated palmitic acid 2 hrs
Experimental: FIGS. 5A-5K. AMPK phosphorylates caspase-6 to inhibit its cleavage and activation. FIG. 5A. Primary hepatocytes were pretreated 40 μM A-769662 for 1 hr, then treated 30 μg/ml CHX and 50 ng/ml TNFα for 2 hrs. IB analysis of cell lysates. n=3. Mean±SD. *, P<0.05, two-way ANOVA. FIG. 5B. Primary hepatocytes were pretreated 40 μM A-769662 for 1 hr, then treated 250 μM BSA-conjugated palmitic acid (PA) for 2 hrs. Cell lysates were subject to caspase-6 activity assay. Mean±SD. *, P<0.05. FIG. 5C. Caspase-6 Ser^257 locates within AMPK substrate motif. FIG. 5C. discloses SEQ ID NOS 57-63, respectively, in order of appearance. FIG. 5D. In vitro kinase assay using recombinant caspase-6, and recombinant AMPKα1β1γ1 or AMPKα2β1γ1 active kinase. FIG. 5E. Alignment of caspase-6 sequence. FIG. 5E. discloses SEQ ID NOS 64-67, respectively, in order of appearance. FIG. 5F. HEK293T cells overexpressing caspase-6-myc WT, S^257A, S^257D or S^257E mutant were treated with 10 μg/ml CHX and 25 ng/ml TNFα for 2 hrs. IB analysis of cell lysates. FIGS. 5G-5J. […] Quantification of aCasp6 staining per field in FIG. 5I. n=7. […]
Cell/tissue was homogenized with lysis buffer. Caspase-6 activity was determined with Caspase-6 Colorimetric Assay Kit (Biovision, Cat. K115), according to manufacturer's instruction. […]

[3] = tested on: procaspase-6 cleavage in HepG2 cells; assay: Procaspase-6 cleavage induced by TNFα and CHX in HepG2 cells (IB); type: cell-based; settings: 40 μM pretreatment 1 hr, then 30 μg/ml CHX and 50 ng/ml TNFα 2 hrs
Experimental: FIGS. 15A-15F. AMPK phosphorylates caspase-6 and inhibits its cleavage. FIG. 15A. Caspase-6 activity was measure in the lysates from isolated primary hepatocytes treated with vehicle or 250 μM BSA-conjugated palmitic acid (PA) or 50 ng/ml TNFα for 2 hrs. Data are shown as mean±SD. *, P<0.05, Student's unpaired t test. FIG. 15B. HepG2 cells were pretreated with 40 μM A-769662 for 1 hr, and then treated with 30 μg/ml cycloheximide (CHX) and 50 ng/ml TNFα for 2 hrs. Cell lysates were subject to immunoblot (IB) analysis. FIG. 15C. In vitro kinase assay using purified caspase-6-mycexpressed in HEK293T cells, and recombinant AMPKα1β1γ1 active kinase. FIGS. 15D-15E. Flox and LAKO mice were fed with CD-HFD for 8 weeks. After 6 weeks of CD-HFD feeding, mice were intraperitoneally injected with 25 mg/kg A-769662 or vehicle daily for 2 weeks along with continuous CD-HFD feeding. FIG. 15D. […] Quantification of IB analysis in FIG. 15D. n=3. *, P<0.05, two-way ANOVA. […] Quantification of IB analysis in FIG. 5K. n=3. […]
Western blot was performed as previously described(11). […] Supernatants were collected and analyzed with BCA (Thermo Scientific) to quantify protein content. […] Individual proteins were detected with specific antibodies and visualized on film using horseradish peroxidase-conjugated secondary antibodies (Fisher Scientific) and SuperSignal West Pico PLUS Chemilunminescent Substrate (Thermo Scientific).

For `N#Cc1c(O)c2c(-c3ccc(-c4ccccc4O)cc3)csc2[nH]c1=O` [A-769662], the hepatic triglycerides [1] is listed as “reduced”, the “induction of caspase-6 activity by PA” value [2] is listed as “inhibited” and the procaspase-6 cleavage [3] is listed as “significantly inhibited”.
